By IC50 is commonly meant the concentration at which inhibition is half-maximal. A lower IC50 goes with inhibition by little substance.

For four molecules, IC50 results are on record in BindingDB's records for doi:10.7270/Q20K2778 (The Scripps Research Institute Molecular Screening Center, 2013).

The target in the test is Methyl-CpG-binding domain protein 2 (Homo sapiens, UniProt Q9UBB5). As to the kind of experiment: inhibitors of MBD2 binding to methylated DNA, dose response, biochemical, 5-meCpG oligonucleotide (AID 720645).
Chain of Methyl-CpG-binding domain protein 2 (Q9UBB5 whole entry, the tested form may be a part): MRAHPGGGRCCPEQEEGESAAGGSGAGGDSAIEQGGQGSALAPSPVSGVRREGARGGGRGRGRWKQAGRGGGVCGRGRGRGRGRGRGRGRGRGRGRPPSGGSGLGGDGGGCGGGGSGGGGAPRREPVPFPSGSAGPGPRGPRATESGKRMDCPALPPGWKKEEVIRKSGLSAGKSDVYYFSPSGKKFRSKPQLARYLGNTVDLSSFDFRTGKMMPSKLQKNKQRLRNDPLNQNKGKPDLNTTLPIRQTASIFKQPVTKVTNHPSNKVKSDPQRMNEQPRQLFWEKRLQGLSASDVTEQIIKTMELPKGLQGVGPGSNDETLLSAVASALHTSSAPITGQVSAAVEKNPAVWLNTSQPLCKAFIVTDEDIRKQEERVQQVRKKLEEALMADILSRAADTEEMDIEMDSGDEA
The molecule `COc1cc(C(c2c(C)[nH][nH]c2=O)c2c(C)[nH][nH]c2=O)cc([N+](=O)[O-])c1O` [4-[(3-methoxy-5-nitro-4-oxidanyl-phenyl)-(3-methyl-5-oxidanylidene-1,2-dihydropyrazol-4-yl)methyl]-5-methyl-1,2-dihydropyrazol-3-one] registered an IC50 of 43.8 µM.
The molecule `Cc1ccc2c(Cl)c(Cc3ccccc3)c(=S)[nH]c2n1` [MLS001182542] registered an IC50 of 8.02 µM.
Next, `O=C(O)CSc1cc(NS(=O)(=O)c2ccc(Cl)cc2)c2ccccc2c1O` [2-[4-[(4-chlorophenyl)sulfonylamino]-1-hydroxynaphthalen-2-yl]sulfanylacetic acid]: 4.87 µM; `COc1ccc(-c2csc(/C(C#N)=C/C3C=CC(=O)C([N+](=O)[O-])=C3)n2)cc1OC` (centres undefined) [(E)-2-[4-(3,4-Dimethoxy-phenyl)-thiazol-2-yl]-3-(4-hydroxy-3-nitro-phenyl)-acrylonitrile]: 4.78 µM.
